Measured values taken from PMC7760514, “Fatty Acid Conjugation Leads to Length-Dependent Antimicrobial Activity of a Synthetic Antibacterial Peptide (Pep19-4LF)” (Antibiotics, 2020).
In brackets after ≈: the same amount, converted by molar mass. Peptide text beside a SMILES is read from it. * marks the point of attachment. Hexanoyl = CCCCCC(=O)*

Legend:
[1] = tested on: Rothia kristinae (DSM 20032); experiment: Minimal inhibitory concentration (MIC), broth microdilution; assay type: cell-based; settings: Table 3 of supplement, n=3; unit inferred; 37 ± 1 °C
Procedure: (§1) Minimal inhibitory concentrations (MICs) were determined against Gram-positive Enterococcus faecium vanA (UL 602570*, clinical isolate from Institute for Medical Microbiology and Hygiene, Heidelberg University Hospital, Heidelberg, Germany), Staphylococcus aureus (ATCC 25923), Rothia kristinae (DSM 20032), and Gram-negative Acinetobacter bohemicus (DSM 100419) (all obtained from the Department of Infectious Diseases, Medical Microbiology and Hygiene, Heidelberg University, Heidelberg, Germany) in a 96-well polypropylene plate (650261 Greiner Bio-One GmbH, Frickenhausen, Germany) according to European Committee on Antimicrobial Susceptibility Testing (EUCAST) and The Clinical & Laboratory Standards Institute (CLSI) guidelines. Briefly, the stock solutions of the peptide conjugates in water were adjusted to a concentration of 1.28 mg/mL. Starting with the highest concentration of 64 μg/mL in 96-well polypropylene plates, dilution series in cation-adjusted Mueller–Hinton broth (MHB II; Sigma Aldrich, Steinheim, Germany) were performed, resulting in the lowest concentration of 0.125 μg/mL. A logarithmic growing bacterial culture was adjusted to a McFarland corresponding to 1 × 10^8 cfu/mL using a McFarland counter (DensiCHEK® plus, bioMerieux, Marcy-l’Étoile, France). Finally, a bacterial suspension of 1 × 10^6 cfu/mL (further diluted in MHB II) was added to each peptide-conjugate concentration. Thus, the final bacterial concentration in each well was 5 × 10^5 cfu/mL. The bacteria were incubated at 37 ± 1 °C (for A. bohemicus: 30 ± 1 °C) overnight and the bacterial growth was analyzed after 18 to 20 h. The MIC was defined as the lowest concentration of substance without any visible growth. Vancomycin and colistin sulfate were purchased from Sigma-Aldrich Chemie GmbH, München, Germany and Carl Roth GmbH, Karlsruhe, Germany.

[2] = tested on: Rothia kristinae (DSM 20032); experiment: Minimal bactericidal concentration (MBC); assay type: cell-based; settings: Table 3 of supplement, n=3; unit inferred; lowest concentration killing 99.9% of the inoculum; agar 24 h, 37 ± 1 °C
Procedure: (§2) Minimal bactericidal concentrations (MBCs) were determined by pipetting 3 µL of each broth dilution solution without visible growth onto a new agar plate. The agar plates were incubated at 37 ± 1 °C (for A. bohemicus: 30 ± 1 °C) for 24 h and were again analyzed with respect to bacterial growth. MBC is defined as the lowest concentration killing 99.9% of the inoculum.

[3] = tested on: Acinetobacter bohemicus (DSM 100419); experiment: Minimal bactericidal concentration (MBC); assay type: cell-based; settings: Table S2, n=3; unit inferred; lowest concentration killing 99.9% of the inoculum; agar 24 h, 30 ± 1 °C
Procedure: as §2

[4] = tested on: Acinetobacter bohemicus (DSM 100419); experiment: Minimal inhibitory concentration (MIC), broth microdilution; assay type: cell-based; set-up: key to MIC value: MIC in μg/mL (lowest concentration without visible growth); settings: 30 ± 1 °C; for MIC value: Table S2, n=3, no unit given (main text uses µg/mL)
Procedure: as §1

red blood cells = assay type: cell-based, human
Procedure: A hemolysis assay was performed using heparinized blood for Pep19-4LF, Pep19-2.5, C6-Pep19-short, C11-Pep19-short, and C18-Pep19-short to test the toxicity against red blood cells and selectivity against bacterial cells. A 600 µM stock solution of each peptide was prepared in 0.9% NaCl. Heparinized blood was taken from three individual fasted, healthy volunteers. To purify the erythrocytes, the blood was centrifuged at 2500 rpm for 10 min and the supernatant was removed. The cell-pellet was resuspended in standard PBS. The centrifugation step was repeated for three times until the supernatant was visibly clear. A 96-well v-bottom plate (Greiner Bio-One International GmbH, Kremsmünster, Austria) was loaded as follows: row 1 (A1-H1) was preloaded with 100 µL of 600 µM peptide stock solution and row 12 (A12-H12) was preloaded with 50 µL 10% Triton X-100 (PerkinElmer, Boston, USA) and served as a positive control. […] Fifty µL of the supernatant was then transferred to a new 96-well flat-bottom plate (Greiner Bio-One International GmbH, Kremsmünster, Austria) and the absorbance was measured at a wavelength of 554 nm, using an Infinite M200 PRO microplate reader (Tecan Trading, Maennedorf).
Hemolysis was calculated with the following equation: Hemolysis [%]= Aconjugate− Ablank/ATriton− Ablank

[5] = rat, in vivo, iv
Procedure: For this purpose, the tyrosine residues of the peptides were radiolabeled with ^125I (Hartmann Analytic GmbH, Braunschweig, Germany) using the chloramine-T method [28]. Free ^125I was separated by preparative HPLC as previously described by Schieck et al. [22]. Approximately 2 to 4 MBq of the radiolabeled peptides was injected intravenously into the tail vein and images were recorded immediately post injection and after 1 h, 2 h, 3 h, 5 h, and 24 h. Scintigraphical images were obtained by using a γ-camera (Gamma Imager, Biospace Lab, Paris, France).

[6] = tested on: Staphylococcus aureus (ATCC 25923); experiment: Minimal inhibitory concentration (MIC), broth microdilution; assay type: cell-based; settings: cation-adjusted MHB II, 5 × 10^5 cfu/mL, 37 ± 1 °C, read after 18 to 20 h, n = 3
Procedure: as §1

[7] = tested on: Enterococcus faecium (UL602570*, clinical isolate, vanA-resistant); experiment: as above; assay type: cell-based; settings: cation-adjusted MHB II, 5 × 10^5 cfu/mL, 37 ± 1 °C, read after 18 to 20 h, n = 3
Procedure: as §1

[8] = tested on: Rothia kristinae (DSM 20032); experiment: Time-kill studies; assay type: cell-based; settings: for time until all bacteria killed: n=3
Procedure: Time–kill studies were performed in accordance with CLSI guidelines. Therefore, Rothia kristinae DSM 20032 was adjusted to a concentration of 1 x 10^8 cfu/mL and further diluted to 1 × 10^6 cfu/mL in cation-adjusted MHB II. According to the previous determined MIC values of Pep19-4LF, C11-Pep19-4LF, and bacitracin (positive control) (Sigma Aldrich Chemie GmbH, München, Germany), samples were taken for 4 × MIC, 2 × MIC, 1 × MIC, and 0.5 × MIC after 30 min, 1 h, 2 h, 4 h, and 8 h. These samples were diluted in sterile saline and 10 µL of each sample was loaded onto agar plates. A bacterial suspension of 1 × 10^6 cfu/mL served as a growth control. Incubation occurred at 37 ± 1 °C and all counted colonies were recalculated to the colony number in the original inoculum.

[9] = assay type: physicochemical
Source text: The high MIC value of Pep19-short indicates the importance of a hydrophobic moiety for this synthetic antimicrobial peptide. […] If the length of the fatty acid is too short, the interaction between the peptide conjugate and components of the bacterial cell membrane might be unfavorable, thus leading to loss of efficiency. Fatty acids of medium chain length enable a stable plateau of low MIC values, indicating a more efficient interaction between the peptide conjugate and bacterial cells. […] A detailed interaction between Pep19 peptides and membrane-bound toxins was previously described by Correa et al.. […] A hypothesized mechanism for this interaction represents the reorganization of the bacterial membrane leading in an inability to maintain the osmotic pressure. Here, the positively-charged amino acids of the peptide conjugate might interact with the negatively-charged compounds of the bacterial cell wall and the hydrophobic part interacts with hydrophobic lipids of the bacterial membrane. Several mechanisms for a membrane disruption by amphiphilic peptides were further described by Sato and Feix. With respect to the parent peptide Pep19-4LF, the hydrophobic moiety was located at the C-terminus. As the synthesis leads to peptides that are linked to the resin via their C-terminus, the fatty acids were linked to the free N-terminus of the peptide. […]

CCCCCC(=O)NCC(=O)N[C@@H](CCCCN)C(=O)N[C@@H](CCCCN)C(=O)N[C@@H](Cc1ccc(O)cc1)C(=O)N[C@@H](CCCNC(=N)N)C(=O)N[C@@H](CCCNC(=N)N)C(=O)N[C@@H](Cc1ccccc1)C(=O)N[C@@H](CCCNC(=N)N)C(=O)N[C@@H](Cc1c[nH]c2ccccc12)C(=O)N[C@@H](CCCCN)C(=O)N[C@@H](Cc1ccccc1)C(=O)N[C@@H](CCCCN)C(=O)NCC(=O)N[C@@H](CCCCN)C(N)=O [C6-Pep19-short] (Hexanoyl-GKKYRRFRWKFKGK-NH2)
MIC value [1]: 16 µg/mL (≈ 8.07 µM) | MBC value [2]: 32 µg/mL (≈ 16.1 µM) | MBC value [3]: 16 µg/mL (≈ 8.07 µM) | MIC value [4]: 16 | hemolytic activity (red blood cells): no hemolytic activity

GKKYRRFRWKFKGKLFLFG-NH2 [Pep19-4LF, synthetic antimicrobial parent peptide, …-NH2]
speed of elimination compared among the peptides [5]: slowest elimination | MIC value [1]: 8 µg/mL | MIC [6]: 32 µg/mL | MIC [7]: 8 µg/mL | MBC value [2]: 8 µg/mL | MBC value [3]: 8 µg/mL | MIC value [4]: 8 | MIC ([4]; broth microdilution, cation-adjusted MHB II, 5 × 10^5 cfu/mL, read after 18 to 20 h, n = 3): 8 µg/mL | change in number of cfu/mL ([8]; 0.5 × MIC, 0 to 8 h, n = 3): only a small decrease in the number of cfu/mL | time until all bacteria killed ([8]; 1 × MIC): > 8 h | time until all bacteria killed ([8]; 2 × MIC): 1 h | time until all bacteria killed / no detectable cfu ([8]; 4 × MIC, 1 × 10^6 cfu/mL in MHB II, 37 °C, n = 3): 30 min | mode of action ([8]; 4 × MIC, n = 3): bactericidal mode of action | solubility in water [9]: very low solubility in water
